Entries after “also recorded” stand apart in the source; their conditions may differ.
Columns and labels:
PARP1 = test: qPCR DNA repair gene expression in OE33R: PARP1; format: cell-based, human; conditions: 10 μM, 24 hours
Method: (§1) OE33P radiosensitive oesophageal adenocarcinoma cells and OE33R radioresistant oesophageal adenocarcinoma cells were used to test the effects of the compound 4 on DNA repair gene expression. Cells were maintained in RPMI media supplemented with 10% foetal calf serum, penicillin (100 U/ml) and streptomycin (100 μg/ml). A total of 300,000 cells, in 2 ml media, were seeded per well in 6 well plates and left to incubate for 24 hours. The media was replaced with solutions containing 10 μM of compound 4 or the equivalent volume of DMSO vehicle control. After 24 hours of treatment, RNA was extracted from the cells and converted to cDNA. qPCR was then conducted and expression of MMS19, SMUG1 PARP1 and MLH1 was quantified, […]

[1] = tested on: OE33P radiosensitive oesophageal adenocarcinoma cells; test: Seahorse OCR (oxidative phosphorylation) in OE33P; format: cell-based, human; conditions: 10 μM, 24 hours
Method: (§2) OE33P radiosensitive and OE33R radioresistant oesophageal adenocarcinoma cells were used to test the effects of the compound 4 on oxidative phosphorylation. Cells were maintained in RPMI media supplemented with 10% foetal calf serum, penicillin (100 U/ml) and streptomycin (100 μg/ml). A total of 11,000 OE33P cells and 13,000 OE33R cells, in 100 μl media, were seeded per well in 24 well plates and left to incubate for 24 hours, with an additional 150 μl media added after 5 hours. The media was replaced with solutions containing 10 μM of compound 4 or the equivalent volume of DMSO vehicle control. After 24 hours of treatment, media was replaced with modified DMEM supplemented with 0.5 mM glucose. Rates of oxidative phosphorylation were determined using Seahorse Biosciences metabolism technology. The media was disposed and the cells washed with PBS. The cells were fixed with 1% glutaraldehyde for 15 minutes and then stained with crystal violet for 30 minutes. The plates were blotted and dried overnight. The cells were resuspended with 1% TritonX-100 and shaken for 15 minutes. The absorbance was read on a spectrophotometer at 595 nm Rates of oxidative phosphorylation were then normalised to cell number.

mouse aortic ring = test: Ex vivo mouse aortic ring assay (sprout formation); conditions: 10 μM; C57/BL6 mouse aortic rings in matrigel; vs 0.1% DMSO; hydrochloride
Method: Aortae from sex matched C57/BL6 littermates were cleansed of adipose tissue, cut into 2 mm rings and immersed in matrigel. Aortic rings (6 per experiment) were treated with 0.1% DMSO (vehicle control/VC) or with 10 μM of Compound 4, Compound 12, Compound 15 or Compound 20. Sprouts from the perimeter of the aortic ring were counted and quantified as percentage of vehicle control (VC).

[2] = tested on: OE33R radioresistant oesophageal adenocarcinoma cells; test: Seahorse ECAR (glycolysis) in OE33R; format: cell-based, human; conditions: 10 μM, 24 hours
Method: as §2, with “radiosensitive oesophageal adenocarcinoma cells” for “radiosensitive”, “on glycolysis.” for “on oxidative phosphorylation.”, “11,000” for “11,000 OE33P”, “cells (OE33P) or” for “cells and”, “13,000 cells (OE33R),” for “13,000 OE33R cells,”, “of glycolysis” for “of oxidative phosphorylation”

[3] = tested on: OE33R radioresistant oesophageal adenocarcinoma cells; test: Seahorse OCR (oxidative phosphorylation) in OE33R; format: cell-based, human; conditions: 10 μM, 24 hours, p<0.05
Method: as §2

SMUG1 [4] = test: qPCR DNA repair gene expression in OE33P: SMUG1; format: cell-based, human; conditions: 10 μM, 24 hours
Method: as §1

SMUG1 [5] = test: qPCR DNA repair gene expression in OE33R: SMUG1; format: cell-based, human; conditions: 10 μM, 24 hours
Method: as §1

[6] = tested on: OE33P radiosensitive oesophageal adenocarcinoma cells; test: Seahorse ECAR (glycolysis) in OE33P; format: cell-based, human; conditions: 10 μM, 24 hours
Method: as §2, with “radiosensitive oesophageal adenocarcinoma cells” for “radiosensitive”, “on glycolysis.” for “on oxidative phosphorylation.”, “11,000” for “11,000 OE33P”, “cells (OE33P) or” for “cells and”, “13,000 cells (OE33R),” for “13,000 OE33R cells,”, “of glycolysis” for “of oxidative phosphorylation”

MMS19 = test: qPCR DNA repair gene expression in OE33P: MMS19; format: cell-based, human; conditions: 10 μM, 24 hours, p<0.01
Method: as §1

MLH1 [7] = test: qPCR DNA repair gene expression in OE33R: MLH1; format: cell-based, human; conditions: 10 μM, 24 hours
Method: as §1

[8] = tested on: HT29-LUC radioresistant colorectal adenocarcinoma cells; test: Seahorse ECAR (glycolysis) in HT29-LUC; format: cell-based, human; conditions: 10 μM, 24 hours
Method: HT29-LUC radioresistant colorectal adenocarcinoma cells were used to test the effects of compound 4 on glycolysis. Cells were maintained in McCoy's 5A media supplemented with 10% foetal calf serum. A total of 20,000 cells, in 100 μl media, were seeded per well in 24 well plates and left to incubate for 24 hours, with an additional 150 μl media added after 5 hours. The media was replaced with solutions containing 10 μM of compound 4 or the equivalent volume of DMSO vehicle control. After 24 hours of treatment, media was replaced with modified DMEM supplemented with 0.5 mM glucose. Rates of glycolysis were determined using Seahorse Biosciences metabolism technology. The media was disposed and the cells washed with PBS. The cells were fixed with 1% glutaraldehyde for 15 minutes and then stained with crystal violet for 30 minutes. The plates were blotted and dried overnight. The cells were resuspended with 1% TritonX-100 and shaken for 15 minutes. The absorbance was read on a spectrophotometer at 595 nm Rates of glycolysis were then normalised to cell number.

MLH1 [9] = test: qPCR DNA repair gene expression in OE33P: MLH1; format: cell-based, human; conditions: 10 μM, 24 hours, p<0.05
Method: as §1

[10] = tested on: HT29-LUC radioresistant colorectal adenocarcinoma cells; test: Seahorse OCR (oxidative phosphorylation) in HT29-LUC; format: cell-based, human; conditions: 10 μM, 24 hours, p<0.01
Method: HT29-LUC radioresistant colorectal adenocarcinoma cells were used to test the effects of the compound 4 on oxidative phosphorylation. Cells were maintained in McCoy's 5A media supplemented with 10% foetal calf serum. A total of 20,000 cells, in 100 μl media, were seeded per well in 24 well plates and left to incubate for 24 hours, with an additional 150 μl media added after 5 hours. The media was replaced with solutions containing 10 μM of compound 4 or the equivalent volume of DMSO vehicle control. After 24 hours of treatment, media was replaced with modified DMEM supplemented with 0.5 mM glucose. Rates of oxidative phosphorylation were determined using Seahorse Biosciences metabolism technology. The media was disposed and the cells washed with PBS. The cells were fixed with 1% glutaraldehyde for 15 minutes and then stained with crystal violet for 30 minutes. The plates were blotted and dried overnight. The cells were resuspended with 1% TritonX-100 and shaken for 15 minutes. The absorbance was read on a spectrophotometer at 595 nm Rates of oxidative phosphorylation were then normalised to cell number.

With `Cl.Oc1ccccc1/C=C/c1cnccn1` [Compound 4, (E)-2-[2-(Pyrazin-2-yl)vinyl]phenol hydrochloride] the “expression of PARP1 (qPCR)” value (PARP1) was “not significantly different to control”, the “oxygen consumption rate (OCR), a measure of oxidative phosphorylation” value (“oxygen consumption rate (OCR), a measure” for short) [1] was “does not significantly reduce oxygen consumption rate” and the “angiogenesis (sprout formation) in aortic rings” value (mouse aortic ring) was “block angiogenesis (sprout formation); also recorded: inhibit the formation of sprouts in a statistically significant manner”. For the same compound, the “extracellular acidification rate (ECAR), a measure of glycolysis” value (shortened to “extracellular acidification rate (ECAR)”) [2] was “does not significantly reduce extraceullar acidification rate”, the “oxygen consumption rate (OCR), a measure” value [3] was “does significantly reduce OCR” and the “expression of SMUG1 (qPCR)” value (SMUG1 [4]) was “not significantly different to control”. For the same compound, the “expression of SMUG1 (qPCR)” value (SMUG1 [5]) was “not significantly different to control”, the “extracellular acidification rate (ECAR)” value [6] was “does not significantly reduce extraceullar acidification rate” and the “expression of MMS19 (qPCR)” value (MMS19) was “significantly reduces the expression of MMS19”. For the same compound, the “expression of MLH1 (qPCR)” value (MLH1 [7]) was “not significantly different to control”, the “extracellular acidification rate (ECAR)” value [8] was “does not significantly reduce extraceullar acidification rate” and the “expression of MLH1 (qPCR)” value (MLH1 [9]) was “significantly reduces”. For the same compound, the “oxygen consumption rate (OCR), a measure” value [10] was “significantly reduces oxygen consumption rate”.
